Laboratory results: US20160310369A1, “Low Viscosity Hair Care Composition” (The Procter & Gamble Company, priority 2015, published 2016)
Structures can show the parent of a compound that is named as a salt.

Assay: Kinematic viscosity of surfactant base formulation with added agent, calibrated Cannon viscometers at 40° C.
Type: physicochemical
Conditions: for Kinematic viscosity at 40 C. [cSt] 2% oil: 2% agent in base formulation; for Kinematic viscosity at 40 C. [cSt] Lowest viscosity achieved: lowest over 2-8% agent, Table 2; for Kinematic viscosity at 40 C. [cSt] 4% oil: 4% agent in base formulation; for Kinematic viscosity at 40 C. [cSt] 6% oil: 6% agent in base formulation; for Kinematic viscosity at 40 C. [cSt] 8% oil: 8% agent in base formulation
Source text: Referring to Tables 1 and 2, the base formulations were made by mixing 1.6% perfume, 24% sodium undecyl sulfate (CAS#1072-24-8) active, 6% lauramidopropyl betaine (CAS#4292-10-8) active and 60.4% deionized water which leaves 8% unfilled for the addition of a viscosity reducing agent (the balance being filled in by distilled water). For all compositions, the surfactant, water and additives including viscosity reducing agents were expected to be in a single phase.
The agents from Tables 1 and 2 were added to the base formulation at a percentage of 2%, 4%, 6%, and 8% into the above surfactant solution. The subsequent formulations were vortexed and put into oven at 60° C. overnight to form homogeneous solution. The viscosities of the formulations were measured with calibrated viscometers (Size 200/350/450) from Cannon Instrument Company (2139 High Tech Road, State College, Pa., USA, 16803).
After the equilibration, the formulations were drawn to reach the starting mark with a rubber suction bulb and the flow time between the starting mark and end mark was recorded for calculation. Each formulation was measured three times to calculate average and standard deviation. Between samples, viscometer was cleaned with water and acetone to rinse off residual.
Viscosity values were calculated based on the equation:
Viscosity (mm^2/s·(cSt))=Time (s)*Constant (mm^2/s^2·(cSt/s))
The time in the above equation is the flow time recorded in the experiment and the constant numbers for each calibrated viscometer were obtained from the manuals.
The viscosity of the hair care composition can be calculated using the following method: Combine ingredients including surfactants, perfumes, viscosity reducing agents, polymers, other ingredients and the aqueous medium in a vessel. Samples are vortexed and placed into oven at 60° C. overnight to form a homogeneous solution. Samples that show hazing or clouding and formulas that appear macroscopically heterogeneous (e.g. multiple layers) at room temperature are not considered for further analysis and evaluation.
The viscosities of the formulations are measured with calibrated viscometers (Size 200/350/450) from Cannon Instrument Company (2139 High Tech Road, State College, Pa., USA, 16803). Prior to the measurement, the formulations are equilibrated in the viscometer reservoir for 30 min at 40° C. in water bath to ensure a homogeneous temperature is reached in the system.
After the equilibration, the formulations are drawn to reach the starting mark with a rubber suction bulb and the flow time between the starting mark and end mark is recorded for calculation. Each formulation is measured three times to calculate average and standard deviation. Between samples, the viscometer is cleaned with water and acetone to rinse off residual.

Row | Compound | Kinematic viscosity at 40 C. [cSt] 2% oil | Kinematic viscosity at 40 C. [cSt] Lowest viscosity achieved | Kinematic viscosity at 40 C. [cSt] 4% oil | Kinematic viscosity at 40 C. [cSt] 6% oil | Kinematic viscosity at 40 C. [cSt] 8% oil
1 | CCC(=O)O[C@@H]1C[C@H]2CC[C@]1(C)C2(C)C (racemic) [Iso Bornyl Propionate] | 463.1 cSt | 463 cSt | – | – | –
2 | CCCCCCCC(OC)OC [1,1-Dimethoxyoctane] | 500.7 cSt | 308 cSt | 308.1 cSt | – | –
3 | CC(C)CC=C(C=O)C(C)C [2-Isopropyl-5-methyl-2-hexenal] | 332.3 cSt | 332 cSt | – | – | –
4 | CC(=O)OCCC(C)CCCC(C)C (stereo not drawn) [3,7-Dimethyloctyl Acetate] | 445.7 cSt | 446 cSt | – | – | –
5 | CCC(CC(C)CC)=NO (stereo not drawn) [5-Methyl-3-Heptanone Oxime] | 246.3 cSt | 246 cSt | – | – | –
6 | CCCCOC(=O)c1ccccc1O [Butyl Salicylate] | 367.9 cSt | 368 cSt | – | – | –
7 | CC12CCC(CC1=O)C2(C)C (stereo not drawn) [Camphor Gum] | 365.8 cSt | 127 cSt | 127.2 cSt | – | –
8 | CC(=O)OCCC(C)CCC=C(C)C (stereo not drawn) [Citronellyl Acetate] | 362.7 cSt | 363 cSt | – | – | –
9 | CCC(=O)OC1CC2CC1C1CC=CC21 (stereo not drawn) [Cyclaprop] | 404.2 cSt | 404 cSt | – | – | –
10 | CCCCCCC1C(=O)CCC1C(=O)OC (stereo not drawn) [Dihyro Iso Jasmonate] | 334.9 cSt | 119 cSt | 119.1 cSt | – | –
11 | C=C(C)[C@H]1CC=C(C)CC1 [Dipentene] | 307.6 cSt | 35 cSt | 74.5 cSt | 35.1 cSt | 42.6 cSt
12 | CCO [Ethanol, reference compound] | 205.6 cSt | 29 cSt | 111.0 cSt | 50.8 cSt | 29.2 cSt
13 | CC12CCC(CC1)C(C)(C)O2 [Eucalyptol] | 527.3 cSt | 203 cSt | 292.9 cSt | 203.1 cSt | –
14 | CC(C)=CCC/C(C)=C/COC(=O)Cc1ccccc1 [Geranyl Phenyl Acetate] | 224.0 cSt | 34 cSt | 76.0 cSt | 34.3 cSt | 36.6 cSt
15 | CCCCCCCCCCCCCCCC [Hexadecane] | 21.1 cSt | 18 cSt | 18.1 cSt | – | –
16 | CC(CC=O)CCCC(C)(C)O (stereo not drawn) [Hydroxycitronellal] | 310.8 cSt | 34 cSt | 145.4 cSt | 65.9 cSt | 34.1 cSt
17 | CC(C)COC(=O)c1ccccc1O [Iso Butyl Salicylate] | 408.7 cSt | 409 cSt | – | – | –
18 | CCCCCCCCCCCCCC(=O)OC(C)C [Iso Propyl Myristate] | 234.2 cSt | 30 cSt | 53.7 cSt | 30.4 cSt | 45.0 cSt
19 | CC(C)CCOC(=O)c1ccccc1O [Isoamyl Salicylate] | 460.3 cSt | 193 cSt | 193.2 cSt | – | –
20 | CCCCCC(=O)OCC(C)C [Isobutyl Hexanoate] | 390.0 cSt | 109 cSt | 177.9 cSt | 140.9 cSt | 109.4 cSt
21 | C=C(C)[C@H]1CC=C(C)CC1 [Limonene] | 366.5 cSt | 86 cSt | 166.8 cSt | 97.5 cSt | 86.4 cSt
22 | C=CC(C)(CCC=C(C)C)OC(=O)C(C)C (stereo not drawn) [Linalyl Iso Butyrate] | 223.4 cSt | 38 cSt | 73.0 cSt | 37.7 cSt | 39.9 cSt
23 | COC(C)(C)C1CC=C(C)CC1 (stereo not drawn) [Orange Flower Ether] | 552.2 cSt | 419 cSt | 418.8 cSt | – | –
24 | CC(=O)CCc1ccc(O)cc1 [Raspberry Ketone] | 151.9 cSt | 33 cSt | 107.4 cSt | 54.0 cSt | 33.0 cSt
25 | CCOC(=O)CC(O)(CC(=O)OCC)C(=O)OCC [Triethyl Citrate] | 269.4 cSt | 41 cSt | 136.6 cSt | 66.6 cSt | 40.5 cSt
26 | CCCCCC1(C)CCC(C)(C)C1=O (stereo not drawn) [Veloutone] | 260.2 cSt | 47 cSt | 129.1 cSt | 56.3 cSt | 47.3 cSt
27 | CC1=CC=C(C(C)C)CC1 [alpha-Terpinene] | 324.4 cSt | 42 cSt | 96.0 cSt | 41.5 cSt | 46.7 cSt
28 | CC1=CCC(C(C)C)=CC1 [gamma-Terpinene] | 238.0 cSt | 32 cSt | 65.0 cSt | 31.7 cSt | –
